Measurements published in patent publication US20250011318A1 (ARCUS BIOSCIENCES, INC., priority 2023, published 2025).

What was measured:
Jurkat cells = assay: IL-2 secretion assay in CD3/CD28-activated Jurkat cells (AlphaLISA); format: cell-based, human; details: Homo sapiens, CD3/CD28 T Cell Activator, 24 h, IL-2 AlphaLISA
How it was run: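 IL-2 release quantified by AlphaLISA in supernatants after 24 h CD3/CD28 activation at 37° C. Compounds, 10 μM to 300 pM final in 1:2 steps, were added to 50,000 Jurkat cells/well 1 h before activation; 4-parameter fit gave EC50.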

Cbl-b = molecular target: T1, Cbl-b (Homo sapiens, UniProt Q13191); assay: Cbl-b probe displacement HTRF binding assay; details: 0.4 nM biotinylated Cbl-b, 150 nM BODIPY probe
T1 construct: biotin (biotinylated)
How it was run: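 Probe-displacement HTRF in Hepes/NaCl/Triton/TCEP/BSA buffer at room temperature: compound dilutions (to 10 μM) incubated 60 min with 0.4 nM biotin-Cbl-b, 150 nM BODIPY probe added for 15 min, Tb-streptavidin read. Signal normalised to DMSO and no-protein controls; IC50 from four-parameter curve.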

T1 sequence (Q13191 whole entry, species assumed): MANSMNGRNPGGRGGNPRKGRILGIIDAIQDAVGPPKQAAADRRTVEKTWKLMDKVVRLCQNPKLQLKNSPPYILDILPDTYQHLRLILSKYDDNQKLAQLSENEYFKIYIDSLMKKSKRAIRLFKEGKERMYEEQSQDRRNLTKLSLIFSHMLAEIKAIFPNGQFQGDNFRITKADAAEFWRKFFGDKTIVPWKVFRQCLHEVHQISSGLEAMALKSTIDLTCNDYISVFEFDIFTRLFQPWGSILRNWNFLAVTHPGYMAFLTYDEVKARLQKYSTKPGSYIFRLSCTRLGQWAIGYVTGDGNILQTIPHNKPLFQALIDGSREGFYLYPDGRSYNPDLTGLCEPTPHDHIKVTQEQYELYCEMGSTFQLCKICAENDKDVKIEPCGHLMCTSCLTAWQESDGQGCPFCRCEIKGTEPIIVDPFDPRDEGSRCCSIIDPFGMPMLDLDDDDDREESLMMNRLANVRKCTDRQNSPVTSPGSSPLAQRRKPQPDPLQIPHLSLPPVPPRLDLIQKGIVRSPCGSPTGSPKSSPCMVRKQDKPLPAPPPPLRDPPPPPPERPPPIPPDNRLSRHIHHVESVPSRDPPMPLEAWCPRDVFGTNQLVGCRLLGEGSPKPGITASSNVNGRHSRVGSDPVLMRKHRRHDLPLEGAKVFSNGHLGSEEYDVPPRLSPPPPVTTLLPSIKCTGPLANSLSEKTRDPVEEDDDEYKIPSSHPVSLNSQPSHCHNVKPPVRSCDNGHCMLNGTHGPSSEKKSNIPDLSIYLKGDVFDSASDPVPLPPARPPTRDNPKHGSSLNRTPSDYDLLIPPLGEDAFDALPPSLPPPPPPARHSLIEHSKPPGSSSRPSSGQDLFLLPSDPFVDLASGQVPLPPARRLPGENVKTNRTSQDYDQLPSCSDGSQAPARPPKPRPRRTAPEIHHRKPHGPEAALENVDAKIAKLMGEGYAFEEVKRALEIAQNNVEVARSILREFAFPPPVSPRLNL

Compound	EC50 (Jurkat cells) [nM]	IC50 (Cbl-b) [nM]
Cn1cnnc1-c1cc(F)ccc1-c1cc(C2CC2)nc(-n2cc(C(F)(F)F)c3cc(CO)[nH]c3c2=O)c1 [Example 137, 6-[6-cyclopropyl-4-[4-fluoro-2-(4-methyl-1,2,4-triazol-3-yl)phenyl]pyridin-2-yl]-2-(hydroxymethyl)-4-(trifluoromethyl)-1H-pyrrolo[2,3-c]pyridin-7-one]	< 100	< 100
COCCN(C)Cc1cc2ncn(-c3cc(-c4ccc(F)cc4-c4nncn4C)cc(C4CC4)n3)c(=O)c2[nH]1 [Example 34, 3-[6-cyclopropyl-4-[4-fluoro-2-(4-methyl-1,2,4-triazol-3-yl)phenyl]pyridin-2-yl]-6-[[2-methoxyethyl(methyl)amino]methyl]-5H-pyrrolo[3,2-d]pyrimidin-4-one]	< 100	< 100
Cn1cnnc1-c1cc(F)ccc1-c1cc(C2CC2)nc(-n2cc(C#N)c3c4c([nH]c3c2=O)CCCC4)c1 [Example 144, 2-{6-Cyclopropyl-4-[4-fluoro-2-(4-methyl-4H-1,2,4-triazol-3-yl)phenyl]-2-pyridyl}-1-oxo-2,5,6,7,8,9-hexahydroβ-carboline-4-carbonitrile]	< 100	< 100
COCCNCc1cc2ncn(-c3cc(-c4ccc(F)cc4-c4nc(C#N)cn4C)cc(C4CC4)n3)c(=O)c2[nH]1 [Example 107, 2-[2-[2-cyclopropyl-6-[6-[(2-methoxyethylamino)methyl]-4-oxo-5H-pyrrolo[3,2-d]pyrimidin-3-yl]pyridin-4-yl]-5-fluorophenyl]-1-methylimidazole-4-carbonitrile]	< 100	< 100
Cn1cnnc1-c1cc(F)ccc1-c1cc(C2CC2)nc(-n2cc(C(F)(F)F)c3cc[nH]c3c2=O)c1 [Example 141, 6-[6-cyclopropyl-4-[4-fluoro-2-(4-methyl-1,2,4-triazol-3-yl)phenyl]pyridin-2-yl]-4-(trifluoromethyl)-1H-pyrrolo[2,3-c]pyridin-7-one]	< 100	< 100
Cn1cnnc1-c1cc(F)ccc1-c1cc(C2CC2)nc(-n2cnc3cc(CNCCOC(F)(F)F)[nH]c3c2=O)c1 [Example 30, 6-{6-cyclopropyl-4-[4-fluoro-2-(4-methyl-4H-1,2,4-triazol-3-yl)phenyl]-2-pyridyl}-2-[(2-trifluoromethoxyethylamino)methyl]-1,6-dihydro-1,4,6-triaza-7-indenone]	100 to 1000	< 100
Cn1cnnc1-c1cc(F)ccc1-c1cc(C2CC2)nc(-n2cc(C(F)(F)F)c3c(C#N)c[nH]c3c2=O)c1 [Example 135, 6-[6-cyclopropyl-4-[4-fluoro-2-(4-methyl-1,2,4-triazol-3-yl)phenyl]pyridin-2-yl]-7-oxo-4-(trifluoromethyl)-1H-pyrrolo[2,3-c]pyridine-3-carbonitrile]	< 100	< 100
Cc1cccc(C(O)c2cc3c(C#N)cn(-c4cc(-c5ccc(F)cc5-c5nncn5C)cc(C5CC5)n4)c(=O)c3[nH]2)n1 (stereo not shown) [Example 93, 6-{6-cyclopropyl-4-[4-fluoro-2-(4-methyl-4H-1,2,4-triazol-3-yl)phenyl]-2-pyridyl}-2-[hydroxy(6-methyl-2-pyridyl)methyl]-7-oxo-1,6-dihydro-1,6-diaza-4-indenecarbonitrile]	< 100	< 100
Cc1cccc(C(N)c2cc3c(C#N)cn(-c4cc(-c5ccc(F)cc5-c5nncn5C)cc(C5CC5)n4)c(=O)c3[nH]2)n1 (stereo not shown) [Example 95, 2-[amino(6-methyl-2-pyridyl)methyl]-6-{6-cyclopropyl-4-[4-fluoro-2-(4-methyl-4H-1,2,4-triazol-3-yl)phenyl]-2-pyridyl}-7-oxo-1,6-dihydro-1,6-diaza-4-indenecarbonitrile]	100 to 1000	< 100
Cn1cnnc1-c1cc(F)ccc1-c1cc(C2CC2)nc(-n2cnc3cc(CC4COC4)[nH]c3c2=O)c1 [Example 123, 3-[6-cyclopropyl-4-[4-fluoro-2-(4-methyl-1,2,4-triazol-3-yl)phenyl]pyridin-2-yl]-6-(oxetan-3-ylmethyl)-5H-pyrrolo[3,2-d]pyrimidin-4-one]	100 to 1000	< 100
COCCNCc1cc2ncn(-c3cc(-c4ccc(F)cc4-n4nncc4C)cc(C4CC4)n3)c(=O)c2[nH]1 [Example 132]	< 100	< 100

Next, values leading:

EC50 (Jurkat cells) [nM]	IC50 (Cbl-b) [nM]	Compound
< 100	< 100	Cn1ccnc1-c1cc(F)ccc1-c1cc(C2CC2)nc(-n2cc(C3CC3)c3cc(CN4CCC[C@H](O)C4)[nH]c3c2=O)c1 [Example 58, 2-{[(S)-3-hydroxy-1-piperidyl]methyl}-4-cyclopropyl-6-{6-cyclopropyl-4-[4-fluoro-2-(1-methyl-2-imidazolyl)phenyl]-2-pyridyl}-1,6-dihydro-1,6-diaza-7-indenone]
< 100	< 100	Cn1cnnc1-c1cc(F)ccc1-c1cc(C2CC2)nc(-n2cc(C(F)(F)F)c3nc(C4CCC4)[nH]c3c2=O)c1 [Example 40, 2-Cyclobutyl-5-[6-cyclopropyl-4-[4-fluoro-2-(4-methyl-1,2,4-triazol-3-yl)phenyl]pyridin-2-yl]-7-(trifluoromethyl)-3H-imidazo[4,5-c]pyridin-4-one]
< 100	< 100	Cn1ccnc1-c1cc(F)ccc1-c1cc(C2CC2)nc(-n2cc(C#N)c3cc(CN4CC5(C4)CS(=O)(=O)C5)[nH]c3c2=O)c1 [Example 87, 6-{6-cyclopropyl-4-[4-fluoro-2-(1-methyl-2-imidazolyl)phenyl]-2-pyridyl}-2-{(2,2-dioxo-2λ^6-thia-6-aza-6-spiro[3.3]heptyl)methyl}-7-oxo-1,6-dihydro-1,6-diaza-4-indenecarbonitrile]
100 to 1000	< 100	C[C@@H]1CN(Cc2cc3c(C4CC4)cn(-c4cc(-c5cc(F)c(F)cc5-c5nccn5C)cc(C5CC5)n4)c(=O)c3[nH]2)CCO1 [Example 66, 2-{[(R)-2-methyl-4-morpholinyl]methyl}-4-cyclopropyl-6-{6-cyclopropyl-4-[4,5-difluoro-2-(1-methyl-2-imidazolyl)phenyl]-2-pyridyl}-1,6-dihydro-1,6-diaza-7-indenone]
< 100	< 100	Cn1ccnc1-c1cc(F)ccc1-c1cc(C2CC2)nc(-n2cc(C3CC3)c3cc(CNC(C)(C)C)[nH]c3c2=O)c1 [Example 62, 2-[(tert-butylamino)methyl]-4-cyclopropyl-6-{6-cyclopropyl-4-[4-fluoro-2-(1-methyl-2-imidazolyl)phenyl]-2-pyridyl}-1,6-dihydro-1,6-diaza-7-indenone]
100 to 1000	< 100	Cn1cnnc1-c1cc(F)ccc1-c1cc(C2CC2)nc(-n2cc(C#N)c3cc(C(O)C4CCOC4)[nH]c3c2=O)c1 (stereo not shown) [Example 90, 6-{6-cyclopropyl-4-[4-fluoro-2-(4-methyl-4H-1,2,4-triazol-3-yl)phenyl]-2-pyridyl}-2-[hydroxy(tetrahydro-3-furyl)methyl]-7-oxo-1,6-dihydro-1,6-diaza-4-indenecarbonitrile]
< 100	< 100	CCNc1cc(-c2ccc(F)cc2-c2nncn2C)cc(-n2cc(C3CC3)c3cc(CN4CCC[C@H](C)C4)[nH]c3c2=O)n1 [Example 11, 2-{[(S)-3-methyl-1-piperidyl]methyl}-4-cyclopropyl-6-{6-(ethylamino)-4-[4-fluoro-2-(4-methyl-4H-1,2,4-triazol-3-yl)phenyl]-2-pyridyl}-1,6-dihydro-1,6-diaza-7-indenone]
< 100	< 100	CCOc1cc(-c2ccc(F)cc2-c2nncn2C)cc(-n2cc(C3CC3)c3cc(CN4CCC[C@H](C)C4)[nH]c3c2=O)n1 [Example 9, 2-{[(S)-3-Methyl-1-piperidyl]methyl}-4-cyclopropyl-6-{6-ethoxy-4-[4-fluoro-2-(4-methyl-4H-1,2,4-triazol-3-yl)phenyl]-2-pyridyl}-1,6-dihydro-1,6-diaza-7-indenone]
< 100	< 100	C[C@H]1CCCN(Cc2nc3c(C4CC4)cn(-c4cc(-c5ccc(F)cc5-c5nccn5C)cc(C5CC5)n4)c(=O)c3[nH]2)C1 [Example 51, 7-cyclopropyl-5-[6-cyclopropyl-4-[4-fluoro-2-(1-methylimidazol-2-yl)phenyl]pyridin-2-yl]-2-[[(3S)-3-methylpiperidin-1-yl]methyl]-3H-imidazo[4,5-c]pyridin-4-one]
< 100	< 100	C[C@H]1CCCN(Cc2cc3c(C4CC4)cn(-c4cc(-c5ccc(C#N)cc5-c5nccn5C)cc(C(F)(F)F)n4)c(=O)c3[nH]2)C1 [Example 16, 4-[2-(2-{[(S)-3-methyl-1-piperidyl]methyl}-4-cyclopropyl-7-oxo-1,6-dihydro-1,6-diaza-6-indenyl)-6-(trifluoromethyl)-4-pyridyl]-3-(1-methyl-2-imidazolyl)benzonitrile]
1000 to 5000	100 to 1000	C[C@H]1CCCN(Cc2cc3c(C4CC4)cn(-c4cc(-c5ccc(F)cc5-c5nncn5C)cc(O)n4)c(=O)c3[nH]2)C1 [Example 7, 2-{[(S)-3-methyl-1-piperidyl]methyl}-4-cyclopropyl-6-{4-[4-fluoro-2-(4-methyl-4H-1,2,4-triazol-3-yl)phenyl]-6-hydroxy-2-pyridyl}-1,6-dihydro-1,6-diaza-7-indenone]
< 100	< 100	Cc1ccnnc1-c1cc(F)ccc1-c1cc(C2CC2)nc(-n2cnc3cc(CN4CCO[C@H](C)C4)[nH]c3c2=O)c1 [Example 106, 3-[6-cyclopropyl-4-[4-fluoro-2-(4-methylpyridazin-3-yl)phenyl]pyridin-2-yl]-6-[[(2R)-2-methylmorpholin-4-yl]methyl]-5H-pyrrolo[3,2-d]pyrimidin-4-one]
